{"source": "patent US9216170B2", "about": "“Combination therapy for proliferative disorders” (Hoffman-La Roche Inc., priority 2012, dated 2015)", "key": {"RKO cell xenografts [1]": {"tested_on": "RKO cell xenografts", "assay": "Tumor growth inhibition in RKO xenograft-bearing mice", "type": "in vivo", "details": "for Mean Tumor Volume (mm^3) Start Study DAY: 14: baseline; for Full Regression / Partial Regression: number of animals", "protocol": "(§1) Mice were implanted with RKO cell xenografts. The mice, cell line used, and implantation are described below.\n(§2) RKO cells (American Type Culture Collection, Rockville, Md.) were maintained in DMEM media+10% (v/v) heat-inactivated FBS+1% (v/v) […] L-glutamine. Each mouse received 2×10^6 cells in a total volume of 0.2 ml. Cells were implanted subcutaneously in the right flank of each mouse using a 1 cc syringe and a 26 gauge needle.\n(§3) RKO xenograft-containing mice were randomized into groups of 10 mice each according to tumor volume so that all groups had similar starting mean tumor volumes of about 145 mm^3.\n(§4) 10 groups of mice were used.\n(§5) Treatment duration was 2 weeks.\nEfficacy data was graphically represented as the mean tumor volume±standard error of the mean (SEM). Tumor volumes of treated groups were presented as percentages of tumor volumes of the control groups (% T/C), using the formula: 100×((T−T0)/(C−C0)), where T represented mean tumor volume of a treated group on a specific day during the experiment, T0 represented mean tumor volume of the same […] group on the first day of treatment; C represented mean tumor volume of a control group on the specific day during the experiment, and C0 represented mean tumor volume of the same […] group on the first day of treatment.\nTumor volume (in cubic millimeters) was calculated using the ellipsoid formula: (D×(d2))/2 where ‘D’ represents the large diameter of the tumor, and ‘d’ represents the small diameter.\nStatistical analysis of treated groups was compared with the vehicle group with Mann-Whitney Rank Sum Test, comparisons between groups were analyzed by one-way ANOVA, and post-hoc Bonferroni t-test (GraphPad Prism, version 5.03). Differences between groups were considered to be significant when the probability value (p) was ≦0.05."}, "RKO cell xenografts [2]": {"tested_on": "RKO cell xenografts", "assay": "Assessment of survival / increase in life span (ILS) in RKO xenograft-bearing mice", "type": "in vivo", "details": "for % Increased Life Span: Table 3; for % ILS: Table 4; for 50% Treatment Days: median survival day", "protocol": "as §1, §2, §3, §4, §5\nFor survival assessment, results are plotted as the percentage survival against days after tumor implant (GraphPad Prism, version 5.03). An individual tumor volume of 1500 mm^3 was used as a surrogate for death. The % ILS was calculated as 100×[(median survival day of treated group−median survival day of control group)/median survival day of control group]. Median survival was determined utilizing Kaplan Meier survival analysis. Survival in treated groups was compared with the vehicle group by Log-rank (Mantel-Cox) Test (GraphPad Prism, version 4.3, La Jolla, Calif.). Differences between groups were considered significant when the probability value (p) was ≦0.05."}, "[3]": {"details": "Compound III 100 mg/kg qweekly po"}, "[4]": {"details": "Compound II 200 mg/kg qweekly po"}}, "note": "Read-outs that look alike come from different tables or passages of the source.", "data": [{"smiles": "COc1cc(C(=O)O)ccc1NC(=O)[C@@H]1N[C@@H](CC(C)(C)C)[C@](C#N)(c2ccc(Cl)cc2F)[C@H]1c1cccc(Cl)c1F", "note": "[Compound III]", "values": [{"measurement": "% Inhibition end of study Day: 28", "setting": "RKO cell xenografts [1]; Compound III 80 mg/kg qdx5 po", "result": 65, "unit": "%"}, {"measurement": "% T/C end of study Day: 28", "setting": "RKO cell xenografts [1]; Compound III 80 mg/kg qdx5 po", "result": 35, "unit": "%"}, {"measurement": "Mean Tumor Volume (mm^3) End Study DAY: 29", "setting": "RKO cell xenografts [1]; Compound III 80 mg/kg qdx5 po", "result": 705.24, "unit": "mm^3"}, {"measurement": "Mean Tumor Volume (mm^3) Start Study DAY: 14", "setting": "RKO cell xenografts [1]; Compound III 80 mg/kg qdx5 po", "result": 143.00, "unit": "mm^3"}, {"measurement": "Full Regression", "setting": "RKO cell xenografts [1]; Compound III 80 mg/kg qdx5 po", "result": 0}, {"measurement": "Partial Regression", "setting": "RKO cell xenografts [1]; Compound III 80 mg/kg qdx5 po", "result": 0}, {"measurement": "% Inhibition end of study Day: 28", "setting": "RKO cell xenografts [1]; [3]", "result": 50, "unit": "%"}, {"measurement": "% T/C end of study Day: 28", "setting": "RKO cell xenografts [1]; [3]", "result": 50, "unit": "%"}, {"measurement": "Mean Tumor Volume (mm^3) End Study DAY: 29", "setting": "RKO cell xenografts [1]; [3]", "result": 952.64, "unit": "mm^3"}, {"measurement": "Mean Tumor Volume (mm^3) Start Study DAY: 14", "setting": "RKO cell xenografts [1]; [3]", "result": 147.78, "unit": "mm^3"}, {"measurement": "Full Regression", "setting": "RKO cell xenografts [1]; [3]", "result": 0}, {"measurement": "Partial Regression", "setting": "RKO cell xenografts [1]; [3]", "result": 0}, {"measurement": "% Increased Life Span", "setting": "RKO cell xenografts [2]; Compound III 80 mg/kg qdx5 po", "result": 29, "unit": "%"}, {"measurement": "% Increased Life Span", "setting": "RKO cell xenografts [2]; [3]", "result": 29, "unit": "%"}, {"measurement": "% ILS", "setting": "RKO cell xenografts [2]; Compound III 80 mg/kg", "result": 29, "unit": "%"}, {"measurement": "% ILS", "setting": "RKO cell xenografts [2]; Compound III 100 mg/kg", "result": 29, "unit": "%"}, {"measurement": "50% Treatment Days", "setting": "RKO cell xenografts [2]; Compound III 80 mg/kg", "result": 31, "unit": "days"}, {"measurement": "50% Treatment Days", "setting": "RKO cell xenografts [2]; Compound III 100 mg/kg", "result": 31, "unit": "days"}, {"measurement": "# of animals ≧ 20% BWL", "setting": "Compound III 80 mg/kg qdx5 po", "result": 0}, {"measurement": "% Change in Body Weight at end of Study Day 28", "setting": "Compound III 80 mg/kg qdx5 po", "result": 5.3, "unit": "%"}, {"measurement": "Max % Weight Gain", "setting": "Compound III 80 mg/kg qdx5 po", "result": 7.4, "unit": "%"}, {"measurement": "Max % Weight Loss", "setting": "Compound III 80 mg/kg qdx5 po", "result": 5.3, "unit": "%"}, {"measurement": "Mortality", "setting": "Compound III 80 mg/kg qdx5 po", "result": 0}, {"measurement": "# of animals ≧ 20% BWL", "setting": "[3]", "result": 0}, {"measurement": "% Change in Body Weight at end of Study Day 28", "setting": "[3]", "result": 6.6, "unit": "%"}, {"measurement": "Max % Weight Gain", "setting": "[3]", "result": 7.5, "unit": "%"}, {"measurement": "Max % Weight Loss", "setting": "[3]", "result": 4.7, "unit": "%"}, {"measurement": "Mortality", "setting": "[3]", "result": 0}]}, {"smiles": "CCOc1cc(C(C)(C)C)ccc1C1=N[C@@](C)(c2ccc(Cl)cc2)[C@@](C)(c2ccc(Cl)cc2)N1C(=O)N1CCN(CCCS(C)(=O)=O)CC1", "note": "[Compound II]", "values": [{"measurement": "% Inhibition end of study Day: 28", "setting": "RKO cell xenografts [1]; Compound II 100 mg/kg qd po", "result": 64, "unit": "%"}, {"measurement": "% T/C end of study Day: 28", "setting": "RKO cell xenografts [1]; Compound II 100 mg/kg qd po", "result": 36, "unit": "%"}, {"measurement": "Mean Tumor Volume (mm^3) End Study DAY: 29", "setting": "RKO cell xenografts [1]; Compound II 100 mg/kg qd po", "result": 726.30, "unit": "mm^3"}, {"measurement": "Mean Tumor Volume (mm^3) Start Study DAY: 14", "setting": "RKO cell xenografts [1]; Compound II 100 mg/kg qd po", "result": 146.39, "unit": "mm^3"}, {"measurement": "Full Regression", "setting": "RKO cell xenografts [1]; Compound II 100 mg/kg qd po", "result": 0}, {"measurement": "Partial Regression", "setting": "RKO cell xenografts [1]; Compound II 100 mg/kg qd po", "result": 0}, {"measurement": "% Inhibition end of study Day: 28", "setting": "RKO cell xenografts [1]; [4]", "result": 18, "unit": "%"}, {"measurement": "% T/C end of study Day: 28", "setting": "RKO cell xenografts [1]; [4]", "result": 82, "unit": "%"}, {"measurement": "Mean Tumor Volume (mm^3) End Study DAY: 29", "setting": "RKO cell xenografts [1]; [4]", "result": 1466.93, "unit": "mm^3"}, {"measurement": "Mean Tumor Volume (mm^3) Start Study DAY: 14", "setting": "RKO cell xenografts [1]; [4]", "result": 141.33, "unit": "mm^3"}, {"measurement": "Full Regression", "setting": "RKO cell xenografts [1]; [4]", "result": 0}, {"measurement": "Partial Regression", "setting": "RKO cell xenografts [1]; [4]", "result": 0}, {"measurement": "% Increased Life Span", "setting": "RKO cell xenografts [2]; Compound II 100 mg/kg qd po", "result": 29, "unit": "%"}, {"measurement": "% Increased Life Span", "setting": "RKO cell xenografts [2]; [4]", "result": 0, "unit": "%"}, {"measurement": "% ILS", "setting": "RKO cell xenografts [2]; Compound II 100 mg/kg", "result": 29, "unit": "%"}, {"measurement": "% ILS", "setting": "RKO cell xenografts [2]; Compound II 200 mg/kg", "result": 0, "unit": "%"}, {"measurement": "50% Treatment Days", "setting": "RKO cell xenografts [2]; Compound II 100 mg/kg", "result": 31, "unit": "days"}, {"measurement": "50% Treatment Days", "setting": "RKO cell xenografts [2]; Compound II 200 mg/kg", "result": 24, "unit": "days"}, {"measurement": "Reason for mortality/morbidity", "setting": "Compound II 100 mg/kg qd po", "result": "Technical"}]}, {"smiles": "CCCS(=O)(=O)Nc1ccc(F)c(C(=O)c2c[nH]c3ncc(-c4ccc(Cl)cc4)cc23)c1F", "note": "[vemurafenib, Propane-1-sulfonic acid {3-[5-(4-chlorophenyl)-1H-pyrrolo[2,3-b]pyridine-3-carbonyl-2,4-difluoro-phenyl]-amide}, reference compound]", "values": [{"measurement": "% Inhibition end of study Day: 28", "setting": "RKO cell xenografts [1]; vemurafenib 50 mg/kg bid po", "result": 7, "unit": "%"}, {"measurement": "% T/C end of study Day: 28", "setting": "RKO cell xenografts [1]; vemurafenib 50 mg/kg bid po", "result": 93, "unit": "%"}, {"measurement": "Mean Tumor Volume (mm^3) End Study DAY: 29", "setting": "RKO cell xenografts [1]; vemurafenib 50 mg/kg bid po", "result": 1643.76, "unit": "mm^3"}, {"measurement": "Mean Tumor Volume (mm^3) Start Study DAY: 14", "setting": "RKO cell xenografts [1]; vemurafenib 50 mg/kg bid po", "result": 142.50, "unit": "mm^3"}, {"measurement": "Full Regression", "setting": "RKO cell xenografts [1]; vemurafenib 50 mg/kg bid po", "result": 0}, {"measurement": "Partial Regression", "setting": "RKO cell xenografts [1]; vemurafenib 50 mg/kg bid po", "result": 0}, {"measurement": "% Increased Life Span", "setting": "RKO cell xenografts [2]; vemurafenib 50 mg/kg bid po", "result": 0, "unit": "%"}, {"measurement": "% ILS", "setting": "RKO cell xenografts [2]; vemurafenib 50 mg/kg", "result": 0, "unit": "%"}, {"measurement": "50% Treatment Days", "setting": "RKO cell xenografts [2]; vemurafenib 50 mg/kg", "result": 24, "unit": "days"}, {"measurement": "# of animals ≧ 20% BWL", "setting": "vemurafenib 50 mg/kg bid po", "result": 0}, {"measurement": "% Change in Body Weight at end of Study Day 28", "setting": "vemurafenib 50 mg/kg bid po", "result": 4.6, "unit": "%"}, {"measurement": "Max % Weight Gain", "setting": "vemurafenib 50 mg/kg bid po", "result": 7.5, "unit": "%"}, {"measurement": "Max % Weight Loss", "setting": "vemurafenib 50 mg/kg bid po", "result": 2.8, "unit": "%"}, {"measurement": "Mortality", "setting": "vemurafenib 50 mg/kg bid po", "result": 0}]}]}
